Source: patent publication US4101662A, “Method for inhibiting emesis and compositions therefor” (priority 1973, dated 1978)
Where a name gives a salt, the structure may show the parent alone. Read-outs that look alike come from different tables or passages of the source.

Tested on: emetic effect of apomorphine
Assay: Antiemetic activity (IM) against apomorphine-induced emesis in unanesthetized dogs, ED50
Assay type: in vivo
Details: for ED50: Canis lupus familiaris
Method: Description of this invention will therefore be made with especial emphasis on 4-(p-fluorobenzoyl)-1-[3-(p-fluorobenzoyl)propyl]piperidine hydrochloride, it being understood that the principles and practices involved are applicable to the other compounds of the formula first hereinabove set forth. The antiemetic activity of the compounds was determined by the following standard pharmacological tests.
The compounds were administered intramuscularly (IM) to unanesthetized dogs in the caudal muscles (left hind leg) and thirty minutes later they received apomorphine hydrochloride (0.1 mg./kg. s.c.). The compounds were administered in micrograms (mcg.) at several dose levels and the percent reduction in frequency of emesis relative to controls determined. From the data the ED50 in micrograms was determined.

[1] = IM, unanesthetized dogs, 30 minutes before apomorphine hydrochloride 0.1 mg/kg s.c., reduction in frequency of emesis relative to controls, read-out: ED50 and 95% Confidence Limits

## O=C(CCCN1CCC(C(=O)c2ccc(F)cc2)CC1)c1ccc(F)cc1 [Example 1, 4-(p-Fluorobenzoyl)-1-[3-(p-fluorobenzoyl)propyl]piperidine Hydrochloride]
[1]
  ED50: 0.0083 mg/kg

## O=C(CCCN1CCC(C(=O)c2ccc(F)cc2)CC1)c1ccc(Cl)cc1 [Example 2, 4-(p-Fluorobenzoyl)-1-[3-(p-chlorobenzoyl)propyl]piperidine Hydrochloride]
[1]
  ED50: 0.06 mg/kg

## O=C(CCCN1CCC(C(=O)c2ccc(Cl)cc2)CC1)c1ccc(F)cc1 [Example 3, 4-(p-Chlorobenzoyl)-1-[3-(p-fluorobenzoyl)propyl]piperidine Hydrochloride]
[1]
  ED50: 0.077 mg/kg

## O=C(CCCN1CCC(C(=O)c2ccc(Cl)cc2)CC1)c1ccc(Cl)cc1 [Example 4, 4-(p-chlorobenzoyl)-1-[3-(p-chlorobenzoyl)propyl]piperidine Hydrochloride]
IM, unanesthetized dogs, 30 minutes before apomorphine hydrochloride 0.1 mg/kg s.c., footnote a: estimated values
  ED50 and 95% Confidence Limits (Estimated Values): ~1401.0 (796-2468) mcg/kg

## O=C(CCCN1CCC(C(O)c2ccc(F)cc2)CC1)c1ccc(F)cc1 (stereo not drawn) [Example 9, 4-(p-Fluoro-α-hydroxybenzyl)-1-[3-(p-fluorobenzoyl)propyl]piperidine]
im, read-out: ED50 and 95% Confidence Limits
  ED50: 0.132 mg/kg

## OC(CCCN1CCC(C(O)c2ccc(F)cc2)CC1)c1ccc(F)cc1 (stereo not drawn) [Example 10, 4-(p-Fluoro-α-hydroxybenzyl)-1-[3-(p-fluoro-α-hydroxy)propyl]piperidine]
IM, unanesthetized dogs, 30 minutes before apomorphine hydrochloride 0.1 mg/kg s.c., footnote b: graphic estimate, vehicle 80% polyethylene glycol 300 and 20% water, read-out: ED50 (value obtained from a graphic estimate)
  ED50: ~1 mg/kg
